Tests used:
Experiment in all cases: Kinase spectrum evaluation, radiometric 33P-ATP kinase assay
Type in all cases: biochemical
Conditions in all cases: room temperature 2 h, 10 concentration gradients
EGFR (A763_Y764insFHEA) = target: T1, EGFR (A763_Y764insFHEA) (Homo sapiens, UniProt P00533, INS763FHEA)
T1 construct: purchased Reaction Biology Corporation (commissioned test)
Procedure: (§1) The substrate for the kinase reaction was placed in a freshly prepared reaction buffer and the co-factors required for the kinase reaction were added, and the buffer was prepared as: 20 mM HEPES (pH 7.5), 10 mM MgCl2, 1 mM EGTA, 0.02% Brij35, 0.02 mg/mL BSA, 0.1 mM Na3VO4, 2 mM DTT, 1% DMSO; afterwards, the kinase to be tested was added and gently shaken. The compound to be tested was dissolved in DMSO to the desired concentration and added to the above buffer containing the kinase/substrate using an autosampler Echo550. 33P-labeled ATP (33P-ATP at a final concentration of 0.01 μCi/μL) was added to the reaction system to initiate the kinase reaction at room temperature for 2 h. […] Kinase activity data were expressed as a percentage of the remaining kinase activity in the test sample, 10 concentration gradients were measured, a curve was fitted and IC50 values were calculated using Prism4 (GraphPad software).

EGFR (A763_Y764insFQEA) = target: T2, EGFR (A763_Y764insFQEA) (Homo sapiens, UniProt P00533, INS763FQEA)
T2 construct: purchased Reaction Biology Corporation (commissioned test)
T2 sequence (P00533 with tags, fused parts or gaps INS763FQEA limits assumed): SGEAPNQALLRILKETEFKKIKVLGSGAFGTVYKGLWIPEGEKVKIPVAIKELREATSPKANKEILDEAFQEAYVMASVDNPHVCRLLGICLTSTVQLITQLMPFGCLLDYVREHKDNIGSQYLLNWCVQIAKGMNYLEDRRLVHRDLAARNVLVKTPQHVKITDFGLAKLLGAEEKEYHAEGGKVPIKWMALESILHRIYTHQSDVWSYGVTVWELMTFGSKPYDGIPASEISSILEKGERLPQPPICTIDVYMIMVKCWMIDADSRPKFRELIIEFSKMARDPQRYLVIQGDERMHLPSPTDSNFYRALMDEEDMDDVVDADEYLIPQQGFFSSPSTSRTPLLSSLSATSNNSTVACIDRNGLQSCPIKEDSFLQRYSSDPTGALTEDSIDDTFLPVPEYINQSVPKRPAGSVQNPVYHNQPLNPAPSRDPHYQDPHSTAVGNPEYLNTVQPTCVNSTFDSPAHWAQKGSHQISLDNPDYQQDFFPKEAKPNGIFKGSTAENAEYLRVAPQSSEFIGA
Procedure: as §1

EGFR (D761Y) = target: T3, EGFR (D761Y) (Homo sapiens, UniProt P00533, D761Y)
T3 construct: purchased Reaction Biology Corporation (commissioned test)
T3 sequence (P00533 25-1210 D761Y): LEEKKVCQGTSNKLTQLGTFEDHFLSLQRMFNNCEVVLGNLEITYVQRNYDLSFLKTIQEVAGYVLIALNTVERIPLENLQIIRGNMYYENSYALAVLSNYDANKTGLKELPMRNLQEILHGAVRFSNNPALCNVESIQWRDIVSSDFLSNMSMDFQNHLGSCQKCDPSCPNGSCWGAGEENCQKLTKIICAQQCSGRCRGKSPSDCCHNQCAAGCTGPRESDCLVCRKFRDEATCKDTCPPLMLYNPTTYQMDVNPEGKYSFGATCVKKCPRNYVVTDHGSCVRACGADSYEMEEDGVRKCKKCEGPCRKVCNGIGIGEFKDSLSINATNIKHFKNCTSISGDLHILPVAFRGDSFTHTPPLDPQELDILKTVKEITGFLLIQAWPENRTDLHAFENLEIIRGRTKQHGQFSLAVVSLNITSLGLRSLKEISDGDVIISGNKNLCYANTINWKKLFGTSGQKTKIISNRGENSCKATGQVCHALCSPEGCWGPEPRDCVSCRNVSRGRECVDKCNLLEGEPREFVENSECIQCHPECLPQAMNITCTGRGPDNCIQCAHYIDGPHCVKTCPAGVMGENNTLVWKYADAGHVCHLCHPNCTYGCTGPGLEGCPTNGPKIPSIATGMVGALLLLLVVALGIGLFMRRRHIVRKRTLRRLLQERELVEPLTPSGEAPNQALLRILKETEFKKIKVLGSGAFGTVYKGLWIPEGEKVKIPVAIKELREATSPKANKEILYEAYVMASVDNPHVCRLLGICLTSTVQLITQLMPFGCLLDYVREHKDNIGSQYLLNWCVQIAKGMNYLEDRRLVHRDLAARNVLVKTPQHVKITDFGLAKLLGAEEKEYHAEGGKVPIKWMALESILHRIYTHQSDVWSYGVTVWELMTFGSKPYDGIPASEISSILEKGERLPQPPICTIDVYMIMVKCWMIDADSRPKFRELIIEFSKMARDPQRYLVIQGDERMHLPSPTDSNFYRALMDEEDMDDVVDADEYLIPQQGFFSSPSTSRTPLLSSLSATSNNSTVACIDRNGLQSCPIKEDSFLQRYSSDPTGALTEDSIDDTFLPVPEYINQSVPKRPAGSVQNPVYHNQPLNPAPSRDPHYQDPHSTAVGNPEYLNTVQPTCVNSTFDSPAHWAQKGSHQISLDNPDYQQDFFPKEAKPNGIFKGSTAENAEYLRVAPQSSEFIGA
Procedure: as §1

EGFR (D770_N771insNPG) = target: T4, EGFR (D770_N771insNPG) (Homo sapiens, UniProt P00533, INS770NPG)
T4 construct: purchased Reaction Biology Corporation (commissioned test)
Procedure: as §1

[1] = target: T5, EGFR (D770_N771insNPG/T790M) (Homo sapiens, UniProt P00533, INS770NPG/T790M)
T5 construct: purchased Reaction Biology Corporation (commissioned test)
T5 sequence (P00533 with tags, fused parts or gaps INS770NPG/T790M limits assumed): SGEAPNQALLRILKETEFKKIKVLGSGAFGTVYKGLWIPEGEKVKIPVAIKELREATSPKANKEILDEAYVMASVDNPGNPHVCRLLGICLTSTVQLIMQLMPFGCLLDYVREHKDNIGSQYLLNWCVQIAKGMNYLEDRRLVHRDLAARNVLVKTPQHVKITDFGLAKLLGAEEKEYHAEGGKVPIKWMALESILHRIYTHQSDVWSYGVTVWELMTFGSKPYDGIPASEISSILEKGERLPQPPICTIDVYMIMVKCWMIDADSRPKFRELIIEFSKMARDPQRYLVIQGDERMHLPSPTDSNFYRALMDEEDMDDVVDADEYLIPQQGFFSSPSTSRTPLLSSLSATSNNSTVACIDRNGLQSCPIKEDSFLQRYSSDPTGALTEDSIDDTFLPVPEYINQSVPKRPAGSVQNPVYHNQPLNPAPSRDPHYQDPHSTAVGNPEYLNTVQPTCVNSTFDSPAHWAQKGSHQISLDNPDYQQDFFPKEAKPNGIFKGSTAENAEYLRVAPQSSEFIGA
Procedure: as §1

EGFR (D770GY) = target: T6, EGFR (D770GY) (Homo sapiens, UniProt P00533, D770Y/INS769G)
T6 construct: purchased Reaction Biology Corporation (commissioned test)
T6 sequence (P00533 with tags, fused parts or gaps INS769G/D770Y limits assumed): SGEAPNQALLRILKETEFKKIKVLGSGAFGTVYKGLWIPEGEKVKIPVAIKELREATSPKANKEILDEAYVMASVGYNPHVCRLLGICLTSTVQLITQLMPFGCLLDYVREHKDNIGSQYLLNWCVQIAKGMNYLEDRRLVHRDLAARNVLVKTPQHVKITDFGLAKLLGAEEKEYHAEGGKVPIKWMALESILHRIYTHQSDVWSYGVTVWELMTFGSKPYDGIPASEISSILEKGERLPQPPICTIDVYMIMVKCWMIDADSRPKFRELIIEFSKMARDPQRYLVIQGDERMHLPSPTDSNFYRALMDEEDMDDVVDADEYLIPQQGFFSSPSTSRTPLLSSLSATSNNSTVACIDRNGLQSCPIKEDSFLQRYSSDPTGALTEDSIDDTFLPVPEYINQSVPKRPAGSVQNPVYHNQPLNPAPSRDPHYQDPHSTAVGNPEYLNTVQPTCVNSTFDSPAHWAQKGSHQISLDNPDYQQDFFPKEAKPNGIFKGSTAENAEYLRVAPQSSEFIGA
Procedure: as §1

EGFR (G719C) = target: T7, EGFR (G719C) (Homo sapiens, UniProt P00533, G719C)
T7 construct: purchased Reaction Biology Corporation (commissioned test)
Procedure: as §1

EGFR (G719D) = target: T8, EGFR (G719D) (Homo sapiens, UniProt P00533, G719D)
T8 construct: purchased Reaction Biology Corporation (commissioned test)
Procedure: as §1

EGFR (G719S) = target: T9, EGFR (G719S) (Homo sapiens, UniProt P00533, G719S)
T9 construct: purchased Reaction Biology Corporation (commissioned test)
T9 sequence (P00533 25-1210 G719S): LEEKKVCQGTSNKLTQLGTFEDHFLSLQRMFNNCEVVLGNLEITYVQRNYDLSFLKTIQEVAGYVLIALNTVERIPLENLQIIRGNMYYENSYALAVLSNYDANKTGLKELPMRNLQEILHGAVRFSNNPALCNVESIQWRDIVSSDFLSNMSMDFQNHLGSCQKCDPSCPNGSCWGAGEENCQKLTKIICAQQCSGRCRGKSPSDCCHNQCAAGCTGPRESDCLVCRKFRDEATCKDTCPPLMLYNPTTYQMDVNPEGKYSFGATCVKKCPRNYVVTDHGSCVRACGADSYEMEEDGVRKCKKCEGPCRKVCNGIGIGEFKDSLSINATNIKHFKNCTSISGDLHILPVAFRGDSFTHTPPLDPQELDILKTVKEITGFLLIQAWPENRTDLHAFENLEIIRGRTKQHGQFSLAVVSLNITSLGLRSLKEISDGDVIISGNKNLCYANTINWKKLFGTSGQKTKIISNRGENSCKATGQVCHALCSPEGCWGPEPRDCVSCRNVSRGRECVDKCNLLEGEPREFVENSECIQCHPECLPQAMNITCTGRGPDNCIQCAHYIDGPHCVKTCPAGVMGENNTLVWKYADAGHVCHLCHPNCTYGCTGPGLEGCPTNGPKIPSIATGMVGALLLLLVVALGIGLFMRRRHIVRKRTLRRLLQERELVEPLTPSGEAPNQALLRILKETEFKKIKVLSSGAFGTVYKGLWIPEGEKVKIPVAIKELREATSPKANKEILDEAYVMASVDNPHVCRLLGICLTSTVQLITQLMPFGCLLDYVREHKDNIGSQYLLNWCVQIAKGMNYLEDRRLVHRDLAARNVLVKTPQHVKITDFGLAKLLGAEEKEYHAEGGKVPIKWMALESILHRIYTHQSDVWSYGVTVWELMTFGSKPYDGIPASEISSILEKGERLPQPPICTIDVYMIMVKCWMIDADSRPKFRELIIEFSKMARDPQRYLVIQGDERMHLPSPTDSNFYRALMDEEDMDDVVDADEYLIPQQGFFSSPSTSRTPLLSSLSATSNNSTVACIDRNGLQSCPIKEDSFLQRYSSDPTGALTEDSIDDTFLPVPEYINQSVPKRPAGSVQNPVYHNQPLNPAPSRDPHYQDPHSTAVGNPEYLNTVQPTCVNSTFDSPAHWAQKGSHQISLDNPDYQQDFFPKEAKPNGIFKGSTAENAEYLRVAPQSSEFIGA
Procedure: as §1

EGFR (L861Q) = target: T10, EGFR (L861Q) (Homo sapiens, UniProt P00533, L861Q)
T10 construct: purchased Reaction Biology Corporation (commissioned test)
Procedure: as §1

ERBB2 (D769Y) = target: T11, ERBB2 (D769Y) (Homo sapiens, UniProt P04626, D769Y)
T11 construct: purchased Reaction Biology Corporation (commissioned test)
Procedure: as §1

ERBB2 (V777_G778insCG) = target: T12, ERBB2 (V777_G778insCG) (Homo sapiens, UniProt P04626, INS777CG)
T12 construct: purchased Reaction Biology Corporation (commissioned test)
T12 sequence (P04626 with tags, fused parts or gaps INS777CG limits assumed): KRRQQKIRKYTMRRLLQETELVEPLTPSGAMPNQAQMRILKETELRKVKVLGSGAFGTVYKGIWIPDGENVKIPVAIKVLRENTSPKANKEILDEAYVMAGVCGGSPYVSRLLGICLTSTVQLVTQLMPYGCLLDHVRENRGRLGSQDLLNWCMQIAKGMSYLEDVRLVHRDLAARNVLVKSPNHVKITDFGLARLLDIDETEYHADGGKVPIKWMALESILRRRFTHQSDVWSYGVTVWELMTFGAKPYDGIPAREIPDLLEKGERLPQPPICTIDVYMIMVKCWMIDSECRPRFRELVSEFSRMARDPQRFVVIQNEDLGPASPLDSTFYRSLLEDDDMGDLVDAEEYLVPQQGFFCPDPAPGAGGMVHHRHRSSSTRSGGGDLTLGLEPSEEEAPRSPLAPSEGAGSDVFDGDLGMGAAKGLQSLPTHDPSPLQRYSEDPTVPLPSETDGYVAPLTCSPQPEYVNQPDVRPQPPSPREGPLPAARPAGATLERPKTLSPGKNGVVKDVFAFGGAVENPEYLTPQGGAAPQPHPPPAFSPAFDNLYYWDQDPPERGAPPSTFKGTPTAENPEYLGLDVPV
Procedure: as §1

ERBB2 (V777L) = target: T13, ERBB2 (V777L) (Homo sapiens, UniProt P04626, V777L)
T13 construct: purchased Reaction Biology Corporation (commissioned test)
Procedure: as §1

T1 sequence (P00533 with tags, fused parts or gaps INS763FHEA limits assumed): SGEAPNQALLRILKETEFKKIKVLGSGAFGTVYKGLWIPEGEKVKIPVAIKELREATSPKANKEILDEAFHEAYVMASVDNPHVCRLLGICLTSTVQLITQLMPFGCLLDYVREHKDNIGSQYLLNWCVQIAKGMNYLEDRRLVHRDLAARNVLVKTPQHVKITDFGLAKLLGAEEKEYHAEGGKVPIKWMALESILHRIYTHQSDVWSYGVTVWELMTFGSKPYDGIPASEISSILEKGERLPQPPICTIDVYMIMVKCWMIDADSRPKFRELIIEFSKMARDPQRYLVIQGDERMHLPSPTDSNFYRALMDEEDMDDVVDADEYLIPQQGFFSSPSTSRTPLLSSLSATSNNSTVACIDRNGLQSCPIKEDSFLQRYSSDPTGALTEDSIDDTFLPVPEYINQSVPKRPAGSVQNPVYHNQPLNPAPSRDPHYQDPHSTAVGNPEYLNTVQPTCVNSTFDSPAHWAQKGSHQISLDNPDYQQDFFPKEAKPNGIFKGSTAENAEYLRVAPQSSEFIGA

| IC50 (EGFR (A763_Y764insFHEA)) [nM] | IC50 (EGFR (A763_Y764insFQEA)) [nM] | IC50 (EGFR (D761Y)) [nM] | IC50 (EGFR (D770_N771insNPG)) [nM] | IC50 [1] [nM] | IC50 (EGFR (D770GY)) [nM] | IC50 (EGFR (G719C)) [nM] | IC50 (EGFR (G719D)) [nM] | IC50 (EGFR (G719S)) [nM] | IC50 (EGFR (L861Q)) [nM] | IC50 (ERBB2 (D769Y)) [nM] | IC50 (ERBB2 (V777_G778insCG)) [nM] | IC50 (ERBB2 (V777L)) [nM] | Structure (SMILES) |
| --- | --- | --- | --- | --- | --- | --- | --- | --- | --- | --- | --- | --- | --- |
| 1.56 | 0.78 | 0.78 | 1.23 | 1.89 | 0.76 | 1.04 | 0.82 | 0.97 | 1.67 | 0.77 | 1.56 | 2.05 | C=CC(=O)Nc1cccc(-n2c(=O)c(-c3ccccc3)nc3cnc(Nc4ccc(N5CCN(C)CC5)c(OC)c4)nc32)c1 [compound B] |
| 0.94 | 0.45 | 0.99 | 3.67 | 2.47 | 0.97 | 1.79 | 3.78 | 2.75 | 0.93 | 4.58 | 2.76 | 1.63 | C=CC(=O)Nc1cccc(-n2c(=O)c(C3CCCCC3)nc3cnc(Nc4ccc(N5CCN(C)CC5)cc4OC)nc32)c1 [compound C] |
| 0.57 | 1.92 | 0.45 | 2.78 | 0.99 | 0.87 | 2.41 | 2.91 | 3.02 | 1.04 | 0.78 | 1.96 | 1.87 | C=CC(=O)Nc1cccc(-n2c(=O)c(-c3ccc(F)cc3)nc3cnc(Nc4ccc(N5CCN(C)CC5)cc4OC)nc32)c1 [compound D] |
| 0.77 | 2.37 | 0.62 | 1.74 | 1.58 | 1.01 | 1.64 | 1.64 | 1.67 | 0.88 | 2.59 | 3.78 | 0.82 | C=CC(=O)Nc1cccc(-n2c(=O)c(-c3ccc(OC)cc3)nc3cnc(Nc4ccc(N5CCN(C)CC5)cc4OC)nc32)c1 [compound E] |

— patent publication US20230321103A1, “COMPOUND FOR INHIBITING MUTANT EGFR AND USE THEREOF” (East China University of Science and Technology, priority 2020, published 2023)
